# System: Jurkat T cells
# Test: mRNA sequencing of activated Jurkat T cells
# Type: cell-based, human
# Details: P+I
structure (smiles),measurement,value
"C=CC[C@@H]1/C=C(\C)C[C@H](C)C[C@H](OC)[C@H]2O[C@@](O)(C(=O)C(=O)N3CCCC[C@H]3C(=O)O[C@H](/C(C)=C/[C@@H]3CC[C@@H](O)[C@H](OC)C3)[C@H](C)[C@@H](O)CC1=O)[C@H](C)C[C@@H]2OC [FK506, Tacrolimus, reference compound]",GPR108 FPKM,31.682 FPKM
same,GPR183 FPKM,5.776 FPKM
same,GRAP2 FPKM,19.094 FPKM
same,GRK5 FPKM,8.481 FPKM
same,GZMH FPKM,7.694 FPKM
same,HAPLN3 FPKM,48.4 FPKM
same,HDC FPKM,26.3 FPKM
same,HHIP FPKM,9.345 FPKM
same,HHIP-AS1 FPKM,32.468 FPKM
same,HIVEP2 FPKM,7.494 FPKM
same,HSP90B1 FPKM,877.39 FPKM
same,HSP90B2P FPKM,8.45 FPKM
same,HSPA5 FPKM,373.499 FPKM
same,ICAM1 FPKM,12.704 FPKM
same,ID2 FPKM,13.425 FPKM
same,IER2 FPKM,181.539 FPKM
same,IER3 FPKM,31.73 FPKM
same,IFFO2 FPKM,2.752 FPKM
same,IFIH1 FPKM,11.544 FPKM
same,IFNG FPKM,3.8 FPKM
same,IGLL1 FPKM,3.429 FPKM
same,IGSF9B FPKM,7.175 FPKM
same,IL2RA FPKM,5.833 FPKM
same,IL3 FPKM,0.062 FPKM
same,IL4I1 FPKM,7.078 FPKM
same,IL16 FPKM,10.552 FPKM
same,IL22 FPKM,3.116 FPKM
same,IL23A FPKM,12.207 FPKM
same,IMPA2 FPKM,3.015 FPKM
same,IRF8 FPKM,1.19 FPKM
same,IRF9 FPKM,39.109 FPKM
same,ISM1 FPKM,0.726 FPKM
same,JAK3 FPKM,8.03 FPKM
same,JUN FPKM,3.835 FPKM
same,JUNB FPKM,55.036 FPKM
same,KBTBD11 FPKM,2.434 FPKM
same,KCNK5 FPKM,3.906 FPKM
same,KCTD11 FPKM,3.399 FPKM
same,KIAA0922 FPKM,12.92 FPKM
same,KIF1B FPKM,11.727 FPKM
same,KIF3B FPKM,13.87 FPKM
same,KLF2 FPKM,1.971 FPKM
same,KSR1 FPKM,4.79 FPKM
same,LAIR2 FPKM,2.203 FPKM
same,LAMP3 FPKM,6.412 FPKM
same,LAX1 FPKM,8.052 FPKM
same,LDLRAP1 FPKM,0.778 FPKM
same,LIME1 FPKM,15.749 FPKM
same,LINC00152 FPKM,32.822 FPKM
same,LINC00426 FPKM,1.041 FPKM
same,LINC00528 FPKM,5.759 FPKM
same,LINC00539 FPKM,5.004 FPKM
same,LINC00977 FPKM,0.741 FPKM
same,LOC729603 FPKM,2.179 FPKM
same,LRRC8B FPKM,3.555 FPKM
same,LRRC45 FPKM,4.142 FPKM
same,LYPD3 FPKM,2.727 FPKM
same,MAP2K3 FPKM,41.815 FPKM
same,MAP2K6 FPKM,1.149 FPKM
same,MBOAT2 FPKM,3.773 FPKM
same,MCM4 FPKM,26.368 FPKM
same,MCM5 FPKM,37.057 FPKM
same,METRNL FPKM,7.501 FPKM
same,MIR221 FPKM,10.429 FPKM
same,MIR4435-1HG FPKM,17.138 FPKM
same,MIR6891 FPKM,24.428 FPKM
same,MMP10 FPKM,11.973 FPKM
same,MRPL39 FPKM,132.452 FPKM
same,MYO1D FPKM,4.59 FPKM
same,MYO1G FPKM,98.59 FPKM
same,MYO7B FPKM,15.796 FPKM
same,NAMPT FPKM,34.628 FPKM
same,NDFIP1 FPKM,22.485 FPKM
same,NDFIP2 FPKM,13.13 FPKM
same,NDST3 FPKM,10.369 FPKM
same,NEIL3 FPKM,9.418 FPKM
same,NEXN FPKM,3.661 FPKM
same,NFE2L3 FPKM,15.944 FPKM
same,NFKBIA FPKM,39.193 FPKM
same,NFKBID FPKM,6.668 FPKM
same,NFKBIE FPKM,11.399 FPKM
same,NINJ1 FPKM,11.769 FPKM
same,NKD2 FPKM,3.385 FPKM
same,NKX3-1 FPKM,7.464 FPKM
same,NLRC5 FPKM,38.784 FPKM
same,NPY FPKM,4.771 FPKM
same,NR4A1 FPKM,52.553 FPKM
same,NR4A2 FPKM,0.04 FPKM
same,NRROS FPKM,36.775 FPKM
same,NT5M FPKM,1.582 FPKM
same,NXN FPKM,2.574 FPKM
same,OAS3 FPKM,13.085 FPKM
same,OSBPL3 FPKM,24.517 FPKM
same,PARP9 FPKM,84.306 FPKM
same,PARP14 FPKM,65.432 FPKM
same,PCBP3 FPKM,4.527 FPKM
same,PDE3B FPKM,9.108 FPKM
same,PEAK1 FPKM,5.442 FPKM
same,PELI1 FPKM,8.175 FPKM
same,PHEX FPKM,0.213 FPKM

# Reference: patent US20240376163A1, “PEPTIDE FOR INHIBITING CALCINEURIN AND USE THEREOF” (Seoul National University R&DB Foundation, priority 2023, published 2024)
